Source: patent US20110136728A1, “METHODS OF INCREASING BONE FORMATION USING LEPTIN-RELATED PEPTIDES” (priority 2009, published 2011)
“Also recorded” adds a separate entry of the source. Non-standard residues stand in square brackets, D forms with d. Residues, ends and D or L forms follow the SMILES beside them.

Tests used:
male C57BL/6J ob/ob mice = experiment: Oral delivery (gavage) in ad libitum fed ob/ob mice: body weight, food and water intake, serum glucose, serum osteocalcin; format: in vivo, mouse
Procedure: (§1) Six week-old male C57BL/6J wild type and ob/ob mice were obtained from Jackson Laboratories (Bar Harbor, Me., USA). The animals were housed individually polycarbonate cages fitted with stainless steel wire lids and air filters, and supported on ventilated racks (Thoren Caging Systems, Hazelton, Pa., USA) in the Albany Medical College Animal Resources Facility. The mice were maintained at a constant temperature (24° C.) with lights on from 07:00 to 19:00, and allowed food and water ad libitum for 6 days following arrival. During the test period, mice were fed ad libitum or calorie restricted to 60% of normal. Water intake was allowed ad libitum.
(§2) On day 1 of the study, and on each day thereafter, a water bottle containing 200 ml of water was added to each cage between 09:00 and 10:00 h. Mice fed ad libitum were given 200 g of pelleted rodent diet (Prolab Rat, Mouse, Hamster 3000, St. Louis, Mo.; 22% crude protein, 5% crude fat, 5% fiber, 6% ash, 2.5% additional minerals) between 09:00 and 10:00 h each day. The mice were weighed once daily between 09:00 and 10:00 h on an Acculab V-333 electronic balance (Cole-Parmer, Vernon Hills, Ill., USA). Calorie-restricted wild type and ob/ob mice received 60% of normal daily intake. Twenty four hours later, food and water remaining in the cages was measured to the nearest 0.1 g and 0.1 ml, respectively. To assure fasting glucose levels on days in which blood glucose was measured, food was removed from the cages between 09:00 and 10:00 h, and replaced immediately before the beginning of the dark cycle.
(§3) Mouse [D-Leu-4]OB3 was prepared commercially as a C-terminal amide by Bachem (Torrance, Calif., USA). The peptide was dissolved in 0.3% Intravail A3® (Aegis Therapeutics, San Diego, Calif. USA) reconstituted in water, and administered by gavage once daily for 10 days at a concentration of 1 mg/200 μl immediately before the start of the dark cycle. Is has previously been shown that this is the optimum concentration of mouse [D-Leu-4]-OB3 and its related bioactive peptide amides, for regulating energy expenditure, glucose levels, and insulin sensitivity in two genetically obese mouse models (see Rozhayskaya-Arena M. et al., Endocrinology 141:2501-2517 (2000); Grasso P. et al. Regulatory Pep. 101:123-129 (2001); Grasso P. et al., Diabetes 48:2204-2209 (1999), Grasso P. et al., Endocrinology 138:1413-1418 (1997); Grasso P. et al., Regulatory Peptides 85:93-100 (1999); and Grasso P. et al., Diabetes 48:2204-2209 (1999)). Vehicle injected control mice received 200 ul of Intravail A3® only.
(§4) Initial blood samples were drawn by snipping the end of the tail of each mouse at the beginning of the study (day 0); subsequent samples were obtained by gently removing the scab. Blood was taken 1 h before the onset of the dark period at the beginning of the study, and after 2, 4, 6, 8, and 10 days of treatment. The blood was applied to a test strip, and glucose levels were measured with a Glucometer Elite glucose meter (Bayer, Elkhart, Ind., USA).
(§5) At the end of the study, the mice were anesthetized with isoflurane (5%) and exsanguinated by cardiac puncture. Euthanasia was confirmed by cervical dislocation. The blood was collected in sterile nonheparinized plastic centrifuge tubes and allowed to stand at room temperature for 1 h. The clotted blood was rimmed from the walls of the tubes with sterile wooden applicator sticks. Individual serum samples were prepared by centrifugation for 30 min at 2600×g in an Eppendorf 5702R, A-4-38 rotor (Eppendorf North America, Westbury, N.Y., USA). The serum samples in each experimental group (n=6) were pooled and stored frozen until assayed for osteocalcin content.
(§6) Serum osteocalcin in the pooled samples was assayed in triplicate with a mouse osteocalcin ELISA kit obtained from Biomedical Technologies, Inc. (Stoughton, Mass., USA) according to the instructions supplied by the manufacturer. […]

[1] = tested on: calorie restricted male C57BL/6J wild type mice; experiment: Oral delivery (gavage) in calorie restricted (40%) wild type mice: body weight, serum glucose, serum osteocalcin; format: in vivo, mouse
Procedure: as §1, §2, §3, §4, §5, §6

[2] = Observation of toxic side effects in treated animals; format: in vivo; conditions: treated mice or rats
ob/ob mouse model = conditions: Grasso et al., Regu. Pept. 101:123-129 (2001); cited from earlier work
[3] = ob/ob, ad libitum fed, 1 mg/day, 10 days, gavage in Intravail
[4] = ob/ob, ad libitum fed, 10 days gavage
[5] = ob/ob, ad libitum fed, oral delivery
[6] = 1 mg/day, 10 days, gavage in Intravail

SMILES: CC(C)C[C@@H](NC(=O)[C@H](CO)NC(=O)[C@H](CS)NC(=O)[C@@H](N)CO)C(=O)N1CCC[C@H]1C(=O)N[C@@H](CCC(N)=O)C(=O)N[C@H](C(N)=O)[C@@H](C)O [mouse [D-Leu-4]-OB3] (H-SCS[dL]PQT-NH2; N-terminus assumed)
- serum osteocalcin relative to wild type control mice (male C57BL/6J ob/ob mice; ob/ob mice): significantly elevated serum osteocalcin to levels higher than those seen in wild type control mice
- Body weight (% of initial) (male C57BL/6J ob/ob mice; [3]): 96.3 ± 0.4 % of initial
- Final body weight (male C57BL/6J ob/ob mice; [3]): 34.2 ± 0.9 g
- Serum osteocalcin (male C57BL/6J ob/ob mice; [3]): 300.5 ± 7.0 ng/mL
- daily food intake compared to Intravail alone (male C57BL/6J ob/ob mice; [4]): significantly (P<0.001) less
- daily water consumption compared to Intravail treated counterparts (male C57BL/6J ob/ob mice; [4]): significantly (P<0.05) less water per day
- serum glucose after treatment (male C57BL/6J ob/ob mice; [4]): significantly (P<0.001) reduced serum glucose levels, but not to normal levels
- loss of initial body weight (male C57BL/6J ob/ob mice; ob/ob, ad libitum fed, after 10 days gavage): 3.7%
- Final serum glucose (male C57BL/6J ob/ob mice; ob/ob, ad libitum fed, after 10 days, 1 mg/day gavage in Intravail): 380.5 ± 24.3 mg/dL
- Initial serum glucose (male C57BL/6J ob/ob mice; ob/ob, ad libitum fed, day 0): 503.9 ± 19.6 mg/dL
- Initial body weight (male C57BL/6J ob/ob mice; ob/ob, ad libitum fed, day 0, 1 mg/day, 10 days, gavage in Intravail): 35.5 ± 0.8 g
- reduction of body weight gain (male C57BL/6J ob/ob mice; [5]): 11.6%
- reduction of food intake (male C57BL/6J ob/ob mice; [5]): 16.5%
- reduction of serum glucose (male C57BL/6J ob/ob mice; [5]): 24.4%
- reduction of water intake (male C57BL/6J ob/ob mice; [5]): 22.4%
- Body weight (% of initial) [1, 6]: 90.0 ± 0.8 % of initial
- Final body weight [1, 6]: 20.3 ± 0.7 g
- Serum osteocalcin [1, 6]: 216.6 ± 0.4 ng/mL
- serum osteocalcin, effect on decrease caused by calorie restriction ([1]; 10 days gavage): prevented this decrease; also recorded: significantly (P<0.001) elevated serum osteocalcin levels to levels Seen in Intravail® treated wild type mice fed ad libitum
- weight loss compared to calorie restriction with Intravail alone (words) ([1]; 10 days gavage): did not enhance this weight loss
- weight loss compared to calorie restriction with Intravail alone (words) ([1]; 10 days gavage, listed as mouse [D-leu-4]-OB3): essentially the same
- Final serum glucose ([1]; after 10 days, 1 mg/day gavage in Intravail): 134.8 ± 14.8 mg/dL
- Initial serum glucose ([1]; day 0): 186.7 ± 36.7 mg/dL
- Initial body weight ([1]; day 0, 1 mg/day, 10 days, gavage in Intravail): 22.6 ± 0.8 g
- toxic side effects (words) [2]: lack of toxicity
- toxic side effects (words) ([2]; listed as [D-Leu-4]-OB3): no obvious toxic side effects have ever been observed
- tissue sensitivity to insulin (ob/ob mouse model): increases tissue sensitivity to insulin
